Experiments:
[1] = Preservation stability test; assay type: physicochemical; settings: 4 weeks; 40° C./75% relative humidity opened, 60° C./opened, vs room temperature/closed control
Description: Preservation Stability Test
Crystal form Cl5, crystal form Br5 and crystal form A were preserved in the following condition, and then the amount of impurities in each sample was compared. However, the increase in the impurities by heating was not observed.
• 40° C./75% relative humidity—opened • 60° C./opened • Room temperature/closed (control)

[2] = Powder X-ray diffraction measurement under the control of relative humidity; assay type: physicochemical; settings: dry: 50° C. under reduced pressure; wet: 85% relative humidity
Description: Powder X-Ray Diffraction Measurement Under the Control of Relative Humidity
The powder X-ray diffraction of each of crystal form Cl5 and crystal form Mal2 was measured in the following condition, and the diffraction patterns between dry one and wet one were compared. However, there was no difference thereof in each crystal.
Drying condition (dry): measurement of a sample with drying it at 50° C. under reduced pressure
Humid condition (wet): measurement of a sample under 85% relative humidity
Powder diffractometer: RINT2100S by RIGAKU (and a temperature and humidity attachment for said diffractometer) Humidity generator: SRH-1R Shinei Co., Inc.

[3] = system: lymphocytes in the peripheral blood; assay: Activity to elevate the number of lymphocytes in the peripheral blood in a rat; assay type: in vivo; settings: 30 mg/kg oral, male Wistar rats, 12 hours after administration, control = 100%
Description: Activity to Elevate the Number of Lymphocytes in the Peripheral Blood in a Rat
Therefore, the activity of the compound of the formula (I) to elevate the number of lymphocytes in the rat was examined.
The dosing solution was prepared by dissolving the compound of the formula (I) in dimethylsulfoxide, adding a mixed solution of polyethylene glycol 400: propylene glycol=1:1 thereto and turning it upside and down repeatedly. The final concentration of DMSO was adjusted to 2.5%.
The dosing solution of a test substance (30 mg/kg) was orally administered to male Wistar rats (6 to 8 weeks age) in the amount of 4 mL/kg. After the settled time points after the administration, the blood was drawn from the abdominal large vein under anesthesia and mixed in an EDTA-2K coated container for blood collection. Then, the number of lymphocytes in the peripheral blood was determined by an automated comprehensive hematology analyzer (SF-3000, Sysmex). The test was conducted in n=5, and the ratio (%) of the number of lymphocytes in the peripheral blood in a test substance-administered group to that in a vehicle-treated group (a control group) was calculated while the average value of the number of lymphocytes in the peripheral blood in a control group was determined to be 100%.

Row | increase in the impurities by heating [1] | difference of powder X-ray diffraction patterns between dry and wet [2] | SMILES | ratio (%) of the number of lymphocytes in the peripheral blood to that in a vehicle-treated group [3]
1 | not observed | no difference | CNCc1ccc2c(c1)c(=O)n(-c1ccc(C[C@H](NC(=O)c3c(Cl)cccc3Cl)C(=O)OC(C)C)cc1)c(=O)n2C [crystal form Cl5] | 
2 |  |  | CNCc1ccc2c(c1)c(=O)n(-c1ccc(C[C@H](NC(=O)c3c(Cl)cccc3Cl)C(=O)OC(C)C)cc1)c(=O)n2C [compound of the formula (I), isopropyl ester of N-(2,6-dichlorobenzoyl)-4-[6-(methylamino)methyl-1-methyl-2,4-dioxo-1,4-dihydroquinazoline-3(2H)-yl]-L-phenylalanine] | ≥ 150%

Source: US7842700B2, “Crystals of isopropyl ester of N-(2,6-dichlorobenzoyl)-4-[6-(methylamino)methyl-1-methyl-2,4-dioxo-1,4-dihydroquinazoline-3(2H)-yl]-L-phenylalanine hydrochloride, production method thereof and use thereof” (Ajinomoto Co., Inc., priority 2005, dated 2010)
